# Tested on: FIMMI (Fimbristylis miliacea, globe fringerush)
# Experiment: In-water applied mixtures, transplanted paddy rice, greenhouse
# Type: in vivo, Fimbristylis miliacea (L.) Vahl
# Details: 19 DAA
# Experimental: Weed seeds or nutlets of the desired test plant species were planted in puddled soil (mud) prepared by mixing a shredded, non-sterilized mineral soil (50.5 percent silt, 25.5 percent clay, and 24 percent sand, with a pH of about 7.6 and an organic matter content of about 2.9 percent) and water at a 1:1 volumetric ratio. The prepared mud was dispensed in 365 mL aliquots into 16-ounce (oz.) non-perforated plastic pots with a surface area of 86.59 square centimeters (cm^2) leaving a headspace of 3 centimeters (cm) in each pot Mud was allowed to dry overnight prior to planting or transplanting. Rice seeds were planted in Sun Gro MetroMix® 306 planting mixture, which typically has a pH of 6.0 to 6.8 and an organic matter content of about 30 percent, in plastic plug trays. Seedlings at the second or third leaf stage of growth were transplanted into 840 mL of mud contained in 32-oz. non-perforated plastic pots with a surface area of 86.59 cm^2 4 days prior to herbicide application. The paddy was created by filling the headspace of the pots with 2.5 to 3 cm of water. When required to ensure good germination and healthy plants, a fungicide treatment and/or other chemical or physical treatment was applied. The plants were grown for 4-22 days in a greenhouse with an approximate 14 h photoperiod which was maintained at about 29° C during the day and 26° C. during the night. Nutrients were added as Osmocote® (19:6:12, N:P:K+ minor nutrients) at 2 g per 16-oz. pot and 4 g per 32-oz. pot. Water was added on a regular basis to maintain the paddy flood, and supplemental lighting was provided with overhead metal halide 1000-Watt lamps as necessary. The plants were employed for testing when they reached the first through fourth true leaf stage.
# Treatments consisted of the acid or esters of 4-amino-3-chloro-5-fluoro-6-(4-chloro-2-fluoro-3-methoxy-phenyl)pyridine-2-carboxylic acid (compound A) each formulated as an SC (suspension concentrate) and various herbicidal components alone and in combination. Forms of compound A were applied on an acid equivalent basis.
# Other herbicidal components were applied on an active ingredient basis and included photosystem II (PSII)-inhibits propanil formulated as […] bentazon-sodium formulated as Basagran®, and simetryne (technical grade material).
# Treatment requirements for each compound or herbicidal component were calculated based upon the rates being tested, the concentration of active ingredient or acid equivalent in the formulation, an application volume of 2 mL per component per pot, and an application area of 86.59 cm^2 per pot.
# For formulated compounds, a measured amount was placed in an individual 100 or 200 mL glass vial and was dissolved in a volume of 1.25% (v/v) Agri-Dex® crop oil concentrate to obtain application solutions.
# For technical grade compounds, a weighed amount was placed in an individual 100 to 200 mL glass vial and was dissolved in a volume of acetone to obtain concentrated stock solutions. […]
# The treated plants and control plants were placed in a greenhouse as described above and water was added as needed to maintain a paddy flood. After approximately 3 weeks the condition of the test plants as compared with that of the untreated plants was determined visually and scored on a scale of 0 to 100 percent where 0 corresponds to no injury or growth inhibition and 100 corresponds to complete kill. […]
compound,measurement,setting,value
"COc1c(Cl)ccc(-c2nc(C(=O)OCc3ccccc3)c(Cl)c(N)c2F)c1F [Compound A Benzyl Ester, benzyl ester of 4-amino-3-chloro-5-fluoro-6-(4-chloro-2-fluoro-3-methoxy-phenyl)pyridine-2-carboxylic acid]",Visual Weed Control (%) Obs,8 g ae/ha,0%
same,Visual Weed Control (%) Obs,16 g ae/ha,0%
same,Visual Weed Control (%) Obs,32 g ae/ha,85%
